Laboratory results published in ChEMBL document CHEMBL5370650, “Discovery of Clinical Candidate NT-0796, a Brain-Penetrant and Highly Potent NLRP3 Inflammasome Inhibitor for Neuroinflammatory Disorders” (J Med Chem, 2023).
Converted amounts (≈) assume the structure as drawn. The source made the active and inactive calls. The rule behind the calls is not given here.

Assays:
[1] = Inhibition of LPS-induced IL-6 secretion in human PBMC cells incubated for 4 hrs by ELISA
[2] = Inhibition of LPS-induced TNFalpha secretion in human PBMC cells incubated for 4 hrs by ELISA
[3] = Permeability of compound at pH 7.4 incubated for 4 hrs by […] based PAMPA assay; type: ADME; settings: read-out: permeability
[4] = target: T1, NACHT, LRR and PYD domains-containing protein 3 (Homo sapiens, UniProt Q96P20); assay: Inhibition of NLRP3 inflammasome activation in LPS-activated human PBMC cells assessed as inhibition of ATP/nigericin induced IL-1beta secretion preincubated with LPS for 3 hrs followed by compound addition for 30 mins and further stimulated with ATP for 1 hr by ELISA; type: cell-based
[5] = target: T1, NACHT, LRR and PYD domains-containing protein 3; assay: Inhibition of NLRP3 inflammasome activation in human whole blood assessed as inhibition of LPS/ATP induced IL-1beta secretion preincubated with LPS for 3 hrs followed by compound addition for 30 mins and further stimulated with ATP for 60 mins by ELISA; type: tissue-based
Cytochrome P450 3A4 [6] = target: T2, Cytochrome P450 3A4 (Homo sapiens, UniProt P08684); assay: Reversible inhibition of CYP3A4 in human liver microsomes using midazolam as substrate in presence of NADPH by LC-MS/MS analysis; type: ADME, Microsome
[7] = Kinetic solubility of compound in PBS at pH7.4 at 1 to 200 uM incubated for 24 hrs by LC-UV analysis; type: physicochemical; settings: pH 7.4, dose 1-200 µM, read-out: Kinetic_solubility
[8] = Phototoxicity in mouse BALB/3T3 clone A31 cells incubated under dark condition for 1 hr followed by 2.5 J/cm2 UVA light irradiation for 18 mins by neutral red dye based assay; type: toxicity, cell-based; settings: balb/3t3 clone a31, 1.3 h, time 78 min
Cytochrome P450 2D6 = Cytochrome P450 2D6 (Homo sapiens, UniProt P10635); assay: Reversible inhibition of CYP2D6 in human liver microsomes in presence of NADPH by LC-MS/MS analysis; type: ADME, Microsome
Cytochrome P450 2B6 = target: T3, Cytochrome P450 2B6 (Homo sapiens, UniProt P20813); assay: Reversible inhibition of CYP2B6 in human liver microsomes in presence of NADPH by LC-MS/MS analysis; type: ADME, Microsome
T3 sequence (P20813 whole entry): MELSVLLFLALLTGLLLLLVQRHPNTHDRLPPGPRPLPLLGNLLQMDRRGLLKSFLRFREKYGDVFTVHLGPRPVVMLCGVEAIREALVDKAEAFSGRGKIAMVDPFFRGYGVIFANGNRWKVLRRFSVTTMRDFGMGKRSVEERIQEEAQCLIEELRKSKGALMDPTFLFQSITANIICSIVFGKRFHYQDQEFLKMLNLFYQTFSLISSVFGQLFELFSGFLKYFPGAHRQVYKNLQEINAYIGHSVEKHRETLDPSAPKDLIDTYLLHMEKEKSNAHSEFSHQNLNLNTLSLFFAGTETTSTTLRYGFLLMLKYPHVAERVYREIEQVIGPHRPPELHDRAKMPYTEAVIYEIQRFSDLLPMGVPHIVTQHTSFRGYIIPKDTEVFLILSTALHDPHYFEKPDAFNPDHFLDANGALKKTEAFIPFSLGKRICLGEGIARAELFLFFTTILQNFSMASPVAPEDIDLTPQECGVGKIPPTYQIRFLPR

[9] = target: Voltage-gated inwardly rectifying potassium channel KCNH2 (Homo sapiens, UniProt Q12809); assay: Inhibition of hERG transfected in CHO cells at -80 mV holding potential by Whole-cell patch clamp assay; type: toxicity, cell-based
[10] = Induction of steatosis in human HepG2 cells assessed as accumulation of triglycerides in cytoplasm by high content screening analysis; type: toxicity, cell-based
Cytochrome P450 2C8 = target: T4, Cytochrome P450 2C8 (Homo sapiens, UniProt P10632); assay: Reversible inhibition of CYP2C8 in human liver microsomes in presence of NADPH by LC-MS/MS analysis; type: ADME, Microsome
T4 sequence (P10632 whole entry): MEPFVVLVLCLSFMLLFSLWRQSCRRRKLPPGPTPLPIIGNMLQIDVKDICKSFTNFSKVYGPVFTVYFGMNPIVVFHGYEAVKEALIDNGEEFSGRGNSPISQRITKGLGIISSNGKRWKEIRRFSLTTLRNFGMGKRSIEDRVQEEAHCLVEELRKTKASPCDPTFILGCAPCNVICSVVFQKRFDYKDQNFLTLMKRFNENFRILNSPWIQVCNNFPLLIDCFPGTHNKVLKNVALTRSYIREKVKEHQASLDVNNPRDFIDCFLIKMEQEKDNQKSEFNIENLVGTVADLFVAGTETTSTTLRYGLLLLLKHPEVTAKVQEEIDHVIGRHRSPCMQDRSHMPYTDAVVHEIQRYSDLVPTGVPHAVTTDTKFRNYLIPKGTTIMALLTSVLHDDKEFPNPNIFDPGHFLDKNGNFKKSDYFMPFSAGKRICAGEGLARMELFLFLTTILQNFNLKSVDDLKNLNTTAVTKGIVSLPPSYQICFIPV

Cytochrome P450 3A4 [11] = target: T2, Cytochrome P450 3A4; assay: Reversible inhibition of CYP3A4 in human liver microsomes using nifedipine as substrate incubated for 5 mins in presence of NADPH by LC-MS/MS analysis; type: ADME, Microsome
HepG2 = assay: Induction of phospholipidosis in human HepG2 cells assessed as increase in phospholipids within lysosome by high content screening analysis; type: toxicity, cell-based
[12] = target: 5-hydroxytryptamine receptor 2B (Homo sapiens) (UniProt P41595); assay: Antagonist activity at 5HT2B (unknown origin) at 10 uM by Eurofins-CEREP panel assay relative to control; type: functional; set-up: scale not given: the % may be the effect or the level left; settings: filed as antagonist
[13] = Mutagenicity in Salmonella typhimurium by Ames test; type: toxicity; settings: salmonella enterica subsp. enterica serovar typhimurium
[14] = Drug concentration in C57BL/6J mouse brain at 3 mg/kg, iv measured after 5 mins by LC-MS/MS analysis; type: ADME, organism-based; settings: read-out: Ct
Cytochrome P450 1A2 = target: T5, Cytochrome P450 1A2 (Homo sapiens, UniProt P05177); assay: Reversible inhibition of CYP1A2 in human liver microsomes in presence of NADPH by LC-MS/MS analysis; type: ADME, Microsome
T5 sequence (P05177 whole entry): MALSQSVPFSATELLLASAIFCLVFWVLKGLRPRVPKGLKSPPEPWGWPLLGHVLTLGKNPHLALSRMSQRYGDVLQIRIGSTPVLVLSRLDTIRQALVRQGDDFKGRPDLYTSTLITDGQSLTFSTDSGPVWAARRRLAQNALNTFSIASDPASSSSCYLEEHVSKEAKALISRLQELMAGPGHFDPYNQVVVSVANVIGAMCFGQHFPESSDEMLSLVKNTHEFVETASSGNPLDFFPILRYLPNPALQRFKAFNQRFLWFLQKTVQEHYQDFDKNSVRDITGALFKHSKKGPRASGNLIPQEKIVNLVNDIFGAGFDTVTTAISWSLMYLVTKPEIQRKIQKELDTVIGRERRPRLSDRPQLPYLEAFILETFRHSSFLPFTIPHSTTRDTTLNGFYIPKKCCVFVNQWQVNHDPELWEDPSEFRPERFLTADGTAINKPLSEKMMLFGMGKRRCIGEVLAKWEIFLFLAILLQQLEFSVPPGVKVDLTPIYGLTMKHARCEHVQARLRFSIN

[15] = Drug concentration in C57BL/6J mouse blood at 3 mg/kg, iv measured after 5 mins by LC-MS/MS analysis; type: ADME, organism-based; settings: read-out: Ct
[16] = Ratio of drug concentration in C57BL/6J mouse brain to blood at 3 mg/kg, iv measured after 5 mins by LC-MS/MS analysis; type: ADME, organism-based; settings: read-out: BBR
Cytochrome P450 2C9 = Cytochrome P450 2C9 (Homo sapiens, UniProt P11712); assay: Reversible inhibition of CYP2C9 in human liver microsomes in presence of NADPH by LC-MS/MS analysis; type: ADME, Microsome
Cytochrome P450 2C19 = Cytochrome P450 2C19 (Homo sapiens, UniProt P33261); assay: Reversible inhibition of CYP2C19 in human liver microsomes using S-mephenytoin as substrate incubated for 20 mins in presence of NADPH by LC-MS/MS analysis; type: ADME, Microsome
NLRC4 (Homo sapiens) = assay: Inhibition of NLRC4 inflammasome activation in human PBMC assessed as reduction in IL-1beta secretion at 3 nM preincubated with LPS for 2.5 hrs followed by compound addition for 30 mins by ELISA

T1 sequence (Q96P20 whole entry, the tested form may be a part): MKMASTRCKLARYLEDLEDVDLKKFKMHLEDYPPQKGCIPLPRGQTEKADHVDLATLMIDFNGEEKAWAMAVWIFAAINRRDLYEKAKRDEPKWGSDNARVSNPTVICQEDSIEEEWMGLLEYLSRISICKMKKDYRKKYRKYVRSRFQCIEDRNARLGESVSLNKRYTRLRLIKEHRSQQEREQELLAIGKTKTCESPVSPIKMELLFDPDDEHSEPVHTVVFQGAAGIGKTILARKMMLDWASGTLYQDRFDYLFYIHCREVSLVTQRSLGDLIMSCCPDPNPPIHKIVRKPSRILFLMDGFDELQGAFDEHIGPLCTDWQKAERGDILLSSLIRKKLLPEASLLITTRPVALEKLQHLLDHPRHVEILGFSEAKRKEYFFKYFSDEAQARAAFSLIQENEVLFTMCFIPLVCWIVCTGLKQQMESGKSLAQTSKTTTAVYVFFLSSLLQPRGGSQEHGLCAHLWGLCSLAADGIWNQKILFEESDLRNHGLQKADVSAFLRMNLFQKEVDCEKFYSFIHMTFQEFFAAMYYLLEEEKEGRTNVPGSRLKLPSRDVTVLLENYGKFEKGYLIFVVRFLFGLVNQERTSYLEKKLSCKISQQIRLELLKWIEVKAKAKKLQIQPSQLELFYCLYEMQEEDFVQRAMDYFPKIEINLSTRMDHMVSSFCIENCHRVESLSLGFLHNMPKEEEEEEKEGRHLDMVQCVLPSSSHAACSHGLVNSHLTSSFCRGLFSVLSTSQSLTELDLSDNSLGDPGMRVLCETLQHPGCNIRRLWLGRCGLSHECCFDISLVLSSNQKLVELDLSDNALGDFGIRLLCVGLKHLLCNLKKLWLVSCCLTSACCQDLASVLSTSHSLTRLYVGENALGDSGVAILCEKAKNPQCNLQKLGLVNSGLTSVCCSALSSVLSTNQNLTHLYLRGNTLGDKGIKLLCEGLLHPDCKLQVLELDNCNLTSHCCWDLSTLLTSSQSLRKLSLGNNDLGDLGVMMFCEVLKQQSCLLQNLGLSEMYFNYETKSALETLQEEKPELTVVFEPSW
T2 sequence (P08684 whole entry): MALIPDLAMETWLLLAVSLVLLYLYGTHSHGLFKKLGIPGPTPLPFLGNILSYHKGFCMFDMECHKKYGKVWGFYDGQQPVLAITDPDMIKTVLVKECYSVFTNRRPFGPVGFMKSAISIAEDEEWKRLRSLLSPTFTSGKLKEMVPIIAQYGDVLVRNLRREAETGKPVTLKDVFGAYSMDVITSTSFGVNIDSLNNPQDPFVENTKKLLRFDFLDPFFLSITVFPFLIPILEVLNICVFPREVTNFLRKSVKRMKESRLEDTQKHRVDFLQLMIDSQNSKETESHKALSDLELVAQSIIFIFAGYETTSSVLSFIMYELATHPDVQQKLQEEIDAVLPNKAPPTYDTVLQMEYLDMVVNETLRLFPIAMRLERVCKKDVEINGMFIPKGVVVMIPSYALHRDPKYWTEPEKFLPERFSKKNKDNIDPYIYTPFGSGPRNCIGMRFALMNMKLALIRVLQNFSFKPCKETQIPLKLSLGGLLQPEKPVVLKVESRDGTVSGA
Chain of Cytochrome P450 2C19 (P33261 whole entry): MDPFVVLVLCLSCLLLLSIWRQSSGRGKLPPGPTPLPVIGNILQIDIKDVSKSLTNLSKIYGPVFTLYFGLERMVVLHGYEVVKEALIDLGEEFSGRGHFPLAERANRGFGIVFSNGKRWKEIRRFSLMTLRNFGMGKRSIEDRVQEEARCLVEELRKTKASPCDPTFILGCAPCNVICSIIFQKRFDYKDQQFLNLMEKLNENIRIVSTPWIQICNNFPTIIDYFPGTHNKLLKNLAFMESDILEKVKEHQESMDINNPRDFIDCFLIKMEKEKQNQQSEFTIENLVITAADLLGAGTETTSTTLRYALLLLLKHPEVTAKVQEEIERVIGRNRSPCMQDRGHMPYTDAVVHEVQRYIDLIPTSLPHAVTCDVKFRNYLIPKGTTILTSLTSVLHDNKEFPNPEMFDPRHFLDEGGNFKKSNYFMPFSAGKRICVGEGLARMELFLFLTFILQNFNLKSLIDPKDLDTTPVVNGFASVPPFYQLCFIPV
Chain of Cytochrome P450 2C9 (P11712 whole entry): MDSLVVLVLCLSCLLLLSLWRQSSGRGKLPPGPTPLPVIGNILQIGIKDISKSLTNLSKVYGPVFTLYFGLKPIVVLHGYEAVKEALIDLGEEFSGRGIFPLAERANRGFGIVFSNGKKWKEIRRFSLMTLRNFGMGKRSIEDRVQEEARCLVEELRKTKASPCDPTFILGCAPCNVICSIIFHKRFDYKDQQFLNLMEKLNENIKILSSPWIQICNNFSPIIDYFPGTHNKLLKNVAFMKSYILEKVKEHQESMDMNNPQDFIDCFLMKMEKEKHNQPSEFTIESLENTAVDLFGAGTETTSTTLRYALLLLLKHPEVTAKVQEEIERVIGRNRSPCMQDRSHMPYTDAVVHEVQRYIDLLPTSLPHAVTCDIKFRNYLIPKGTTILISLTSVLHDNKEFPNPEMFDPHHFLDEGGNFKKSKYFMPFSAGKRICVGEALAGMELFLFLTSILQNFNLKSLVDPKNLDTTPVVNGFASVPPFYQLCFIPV
Chain of Cytochrome P450 2D6 (P10635 whole entry): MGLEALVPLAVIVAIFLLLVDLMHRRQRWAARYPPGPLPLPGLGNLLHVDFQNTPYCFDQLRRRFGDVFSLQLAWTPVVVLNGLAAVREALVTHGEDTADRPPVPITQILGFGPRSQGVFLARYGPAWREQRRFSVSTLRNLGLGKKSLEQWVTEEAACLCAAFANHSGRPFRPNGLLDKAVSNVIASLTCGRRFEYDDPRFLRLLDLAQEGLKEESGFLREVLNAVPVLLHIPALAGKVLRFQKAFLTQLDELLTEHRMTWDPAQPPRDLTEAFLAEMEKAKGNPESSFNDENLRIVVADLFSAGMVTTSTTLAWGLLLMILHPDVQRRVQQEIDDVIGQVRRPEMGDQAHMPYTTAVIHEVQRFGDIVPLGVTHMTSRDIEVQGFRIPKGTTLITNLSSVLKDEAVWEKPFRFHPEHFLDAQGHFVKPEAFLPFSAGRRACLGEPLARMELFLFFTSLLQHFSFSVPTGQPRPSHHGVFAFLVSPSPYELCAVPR
Chain of Voltage-gated inwardly rectifying potassium channel KCNH2 (Q12809 whole entry): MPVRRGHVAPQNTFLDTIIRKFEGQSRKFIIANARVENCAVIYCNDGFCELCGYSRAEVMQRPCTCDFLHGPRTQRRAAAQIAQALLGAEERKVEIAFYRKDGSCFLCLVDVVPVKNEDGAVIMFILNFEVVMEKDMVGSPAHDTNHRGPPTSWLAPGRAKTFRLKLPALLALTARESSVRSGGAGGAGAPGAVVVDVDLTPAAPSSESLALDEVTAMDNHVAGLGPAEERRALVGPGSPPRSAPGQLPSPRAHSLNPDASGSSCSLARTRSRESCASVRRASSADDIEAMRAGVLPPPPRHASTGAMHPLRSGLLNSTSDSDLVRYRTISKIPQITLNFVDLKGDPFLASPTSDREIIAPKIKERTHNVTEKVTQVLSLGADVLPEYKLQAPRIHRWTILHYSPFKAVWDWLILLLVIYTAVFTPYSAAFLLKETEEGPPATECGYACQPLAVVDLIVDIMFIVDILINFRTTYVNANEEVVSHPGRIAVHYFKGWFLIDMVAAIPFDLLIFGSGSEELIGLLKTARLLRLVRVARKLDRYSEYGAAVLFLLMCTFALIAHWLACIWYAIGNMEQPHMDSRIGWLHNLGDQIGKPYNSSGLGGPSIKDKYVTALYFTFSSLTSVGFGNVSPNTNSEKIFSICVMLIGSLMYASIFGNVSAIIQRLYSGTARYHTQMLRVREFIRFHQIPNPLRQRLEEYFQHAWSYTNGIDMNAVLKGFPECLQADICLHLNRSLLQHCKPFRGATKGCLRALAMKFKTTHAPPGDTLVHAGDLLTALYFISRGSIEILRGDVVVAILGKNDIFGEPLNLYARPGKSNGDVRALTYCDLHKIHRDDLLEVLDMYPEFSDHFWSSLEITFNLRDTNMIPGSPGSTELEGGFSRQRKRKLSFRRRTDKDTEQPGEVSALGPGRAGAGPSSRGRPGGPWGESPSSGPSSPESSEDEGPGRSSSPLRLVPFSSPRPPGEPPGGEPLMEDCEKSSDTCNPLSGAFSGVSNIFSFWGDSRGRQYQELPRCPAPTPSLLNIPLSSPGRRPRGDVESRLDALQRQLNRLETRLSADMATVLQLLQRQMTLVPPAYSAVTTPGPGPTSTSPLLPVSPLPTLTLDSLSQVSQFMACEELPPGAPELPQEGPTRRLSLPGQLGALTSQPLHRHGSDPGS
Chain of 5-hydroxytryptamine receptor 2B (Homo sapiens) (P41595 whole entry): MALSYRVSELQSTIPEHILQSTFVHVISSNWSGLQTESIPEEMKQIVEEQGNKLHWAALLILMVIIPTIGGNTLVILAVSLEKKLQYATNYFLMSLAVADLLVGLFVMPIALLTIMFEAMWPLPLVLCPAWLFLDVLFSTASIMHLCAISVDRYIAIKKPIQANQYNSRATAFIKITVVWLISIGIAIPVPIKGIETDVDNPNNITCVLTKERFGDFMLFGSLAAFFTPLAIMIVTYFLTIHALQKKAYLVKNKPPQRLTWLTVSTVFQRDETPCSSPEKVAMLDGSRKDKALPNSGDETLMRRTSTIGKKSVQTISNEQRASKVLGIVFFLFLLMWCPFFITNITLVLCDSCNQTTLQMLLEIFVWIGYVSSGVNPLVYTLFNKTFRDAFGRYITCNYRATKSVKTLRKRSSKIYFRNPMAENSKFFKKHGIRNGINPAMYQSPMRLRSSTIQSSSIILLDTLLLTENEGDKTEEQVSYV

CC(C)(O)c1coc(S(=O)(=O)NC(=O)Nc2c3c(cc4c2CCC4)CCC3)c1
IC50 [1]: > 40 µM
IC50 [2]: > 40 µM
Papp at 4 h [3]: < 0.0003 ×10⁻⁶ cm/s

CCOC(=O)COC(=O)Nc1c(C)cc(C)cc1C
IC50 [4]: 0.59 µM
IC50 [5]: 3.9 µM

CC(C)OC(=O)[C@@H](Cc1ncccn1)OC(=O)Nc1c2c(cc3c1CCC3)CCC2 [NT-0796]
IC50 (Cytochrome P450 3A4 [6]): > 30 µM
solubility kinetic at 24 h [7]: 28 µM (≈ 11.5 µg/mL)
Activity [8]: Non-Toxic
IC50 (Cytochrome P450 2D6): > 30 µM
IC50 (Cytochrome P450 2B6): > 30 µM
IC50 [9]: > 30 µM
MEC [10]: > 40 µM
IC50 (Cytochrome P450 2C8): > 30 µM
IC50 (Cytochrome P450 3A4 [11]): > 30 µM
MEC (HepG2): > 40 µM
Activity [12]: 90%
Activity [13]: Non-Toxic
concentration at 5 min [14]: 479 ng/g
IC50 [1]: > 2 µM
IC50 (Cytochrome P450 1A2): > 30 µM
concentration at 5 min [15]: 610 ng/mL
Kp at 5 min [16]: 0.79
IC50 (Cytochrome P450 2C9): > 30 µM
IC50 [2]: > 2 µM
IC50 (Cytochrome P450 2C19): > 30 µM
inhibition (NLRC4 (Homo sapiens)): inactive
Papp at 4 h [3]: 11.8 ×10⁻⁶ cm/s

CCOC(=O)COC(=O)N(C)c1c2c(cc3c1CCC3)CCC2
IC50 [4]: > 40 µM
IC50 [5]: > 40 µM

COC(=O)CN(C)C(=O)Nc1c2c(cc3c1CCC3)CCC2
IC50 [4]: > 40 µM
IC50 [5]: > 40 µM

CCOC(=O)COC(=O)Nc1c(C)cccc1C
IC50 [4]: 0.93 µM
IC50 [5]: 1.1 µM

CCOC(=O)COC(=O)Nc1ccccc1OC(F)(F)F
IC50 [4]: > 20 µM
IC50 [5]: > 20 µM

CC(C)OC(=O)[C@@H](Cn1cc(C#N)cn1)OC(=O)Nc1c2c(cc3c1CCC3)CCC2
solubility kinetic at 24 h [7]: < 1 µM
IC50 (Cytochrome P450 2C19): 4.4 µM
Papp at 4 h [3]: 5 ×10⁻⁶ cm/s

CC(C)OC(=O)[C@@H](Cc1cnccn1)OC(=O)Nc1c2c(cc3c1CCC3)CCC2
solubility kinetic at 24 h [7]: 5.5 µM (≈ 2.25 µg/mL)
IC50 (Cytochrome P450 1A2): 1.1 µM
Papp at 4 h [3]: 13.7 ×10⁻⁶ cm/s

CCOC(=O)COC(=O)Nc1c(Cl)cccc1Cl
IC50 [4]: 1 µM
IC50 [5]: 9.2 µM

CCOC(=O)CNC(=O)Oc1c2c(cc3c1CCC3)CCC2
IC50 [4]: > 40 µM
IC50 [5]: > 40 µM

CCOC(=O)COC(=O)Nc1c(F)cccc1F
IC50 [4]: 1.9 µM
IC50 [5]: 9.4 µM

O=C(Nc1c2c(cc3c1CCC3)CCC2)O[C@H](Cc1ncccn1)C(=O)OC1CCCC1
solubility kinetic at 24 h [7]: < 1 µM
Papp at 4 h [3]: 3.5 ×10⁻⁶ cm/s

CCOC(=O)COC(=O)Nc1c(C)cccc1CC
IC50 [4]: 1.5 µM
IC50 [5]: 2.4 µM

CCOC(=O)COC(=O)Nc1cc(C)ccc1C
IC50 [4]: 0.97 µM
IC50 [5]: 2.9 µM

CCOC(=O)[C@@H](Cc1ncccn1)NC(=O)Nc1c2c(cc3c1CCC3)CCC2
IC50 [1]: 4.3 µM
IC50 [2]: 2.7 µM
Papp at 4 h [3]: 8.2 ×10⁻⁶ cm/s

O=C(Nc1c2c(cc3c1CCC3)CCC2)O[C@H](Cc1ncccn1)C(=O)O
solubility kinetic at 24 h [7]: > 200 µM
IC50 (Cytochrome P450 2D6): > 30 µM
IC50 [4]: 0.066 µM
IC50 (Cytochrome P450 3A4 [11]): > 30 µM
concentration at 5 min [14]: 91.7 ng/g
IC50 (Cytochrome P450 1A2): > 30 µM
concentration at 5 min [15]: 1160 ng/mL
Kp at 5 min [16]: 0.07
IC50 (Cytochrome P450 2C9): > 30 µM
IC50 (Cytochrome P450 2C19): > 30 µM
IC50 [5]: 4.7 µM
Papp at 4 h [3]: < 0.0002 ×10⁻⁶ cm/s

CCOC(=O)COC(=O)Nc1c(CC)cccc1CC
IC50 [4]: 0.81 µM
IC50 [5]: 13 µM

CCOC(=O)COC(=O)Nc1ccccc1C#N
IC50 [4]: 5.5 µM
IC50 [5]: 6.8 µM

CCOC(=O)COC(=O)Nc1c(C(C)C)cccc1C(C)C
IC50 [4]: 10 µM
IC50 [5]: > 20 µM

CCOC(=O)COC(=O)Nc1ccccc1C(F)(F)F
IC50 [4]: > 20 µM
IC50 [5]: > 20 µM

CC(C)OC(=O)[C@@H](Cn1cncn1)OC(=O)Nc1c2c(cc3c1CCC3)CCC2
solubility kinetic at 24 h [7]: 37 µM (≈ 14.7 µg/mL)
IC50 (Cytochrome P450 1A2): 0.18 µM
Papp at 4 h [3]: 13.7 ×10⁻⁶ cm/s

CCOC(=O)COC(=O)Nc1ccccc1C(C)C
IC50 [4]: 1.6 µM
IC50 [5]: 5.5 µM
